Key:
[1] = system: cotton, oilseed rape, sugar beet and Gramineae crops such as barley, wheat, rye, millet, corn or rice; assay: Compatibility with crop plants (greenhouse, visual scoring); format: in vivo; conditions: pre-emergence method or post-emergence method; herbicide/safener combination with safeners II-1, II-9, III-1, b-11, b-14, IX-A3; four to five weeks after application
Text: In further greenhouse trials, seeds of a relatively large number of crop plants and weeds were placed into sandy loam soil and covered with soil. Some of the pots were immediately treated as described in Section 1, the others were placed in a greenhouse until the plants had developed two to three true leaves and were then sprayed with various dosages of the herbicide/safener combinations according to the invention, as described in Section 2.

[2] = system: Sinapis alba, Chrysanthemum segetum, Avena sativa, Stellaria media, Echinochloa crus-galli, Lolium multiflorum, Setaria viridis, Abutilon theophrasti …; assay: Pre-emergence action against weeds (greenhouse pot test, optical scoring); format: in vivo, monocotyledonous and dicotyledonous weed plants; conditions: pre-emergence method; 500 g or less of herbicide (A) per hectare; herbicide/safener combination with safeners II-1, II-9, III-1, b-11, b-14, IX-A3; scored after 3 to 4 weeks
Text: Seeds or rhizome pieces of monocotyledonous and dicotyledonous weed plants were placed in sandy loam soil in cardboard pots and covered with soil. The active compounds (A) and (B), formulated in the form of wettable powders or emulsion concentrates, were then applied to the surface of the covering soil in various dosages as aqueous suspensions or emulsions using a water application rate of 300 to 800 I/ha (converted).
After the treatment, the pots were placed in a greenhouse and kept under good growth conditions for the weeds. Optical scoring of the damage to the plants or emerged plants was carried out after emergence of the test plants after a trial period of 3 to 4 weeks, in comparison to untreated controls. As shown by the results, the tested herbicide/safener combinations have good herbicidal pre-emergence activity against a broad spectrum of weed grasses and broad-leaved weeds.

[3] = system: Sinapis alba, Echinochloa crus-galli, Lolium multiflorum, Chrysanthemum segetum, Setaria viridis, Abutilon theophrasti, Amaranthus retroflexus, Panicum …; assay: Post-emergence action against weeds (greenhouse pot test, visual scoring); format: in vivo, monocotyledonous and dicotyledonous weeds; conditions: post-emergence method, three-leaf stage; 500 g or less of herbicide (A) per hectare; herbicide/safener combination with safeners II-1, II-9, III-1, b-11, b-14, IX-A3; scored after about three to four weeks
Method: Seeds or rhizome pieces of monocotyledonous and dicotyledonous weeds were placed into sandy loam soil in plastic pots, covered with soil and grown in a greenhouse under good growth conditions. Three weeks after sowing, the test plants were treated at the three-leaf stage. The compounds according to the invention, formulated as wettable powders or as emulsion concentrates, were sprayed onto the green parts of the plants at various dosages using a water application rate of 300 to 800 I/ha (converted). The test plants were stood in the greenhouse under optimum growth conditions for about three to four weeks, and the action of the preparations was then scored visually in comparison to untreated controls. Post-emergence, too, the herbicide/safener combinations according to the invention have good herbicidal activity against a broad spectrum of economically important weed grasses and broad-leaved weeds.

With `CCC1(C)CC(S(=O)(=O)Cc2cc(F)ccc2F)=NO1` (stereo not shown) [I-2.2] the “damage to crop plants (visual scoring)” value [1] was “did not cause any damage”, the “herbicidal activity against harmful plants (optical scoring of damage vs untreated controls)” value [2] was “very good herbicidal activity” and the “herbicidal activity against harmful plants (visual scoring vs untreated controls)” value [3] was “very good herbicidal activity”.

For `CC1(C)CC(S(=O)(=O)Cc2c(F)cccc2F)=NO1` [I-3.1], the “damage to crop plants (visual scoring)” value [1] was “did not cause any damage”, the “herbicidal activity against harmful plants (optical scoring of damage vs untreated controls)” value [2] was “very good herbicidal activity” and the “herbicidal activity against harmful plants (visual scoring vs untreated controls)” value [3] was “very good herbicidal activity”.

For `CCC1(C)CC(S(=O)(=O)Cc2c(F)cccc2F)=NO1` (stereo not shown) [I-3.2], the “damage to crop plants (visual scoring)” value [1] was “did not cause any damage”, the “herbicidal activity against harmful plants (optical scoring of damage vs untreated controls)” value [2] was “very good herbicidal activity” and the “herbicidal activity against harmful plants (visual scoring vs untreated controls)” value [3] was “very good herbicidal activity”.

In the case of `CC1(C)CC(S(=O)(=O)Cc2cccc3c2OCCO3)=NO1` [I-21.1], the “damage to crop plants (visual scoring)” value [1] is reported as “did not cause any damage”, the “herbicidal activity against harmful plants (optical scoring of damage vs untreated controls)” value [2] is reported as “very good herbicidal activity” and the “herbicidal activity against harmful plants (visual scoring vs untreated controls)” value [3] is reported as “very good herbicidal activity”.

With `CCC1(C)CC(S(=O)(=O)Cc2cccc3c2OCCO3)=NO1` (stereo not shown) [I-21.2] the “damage to crop plants (visual scoring)” value [1] was “did not cause any damage”, the “herbicidal activity against harmful plants (optical scoring of damage vs untreated controls)” value [2] was “very good herbicidal activity” and the “herbicidal activity against harmful plants (visual scoring vs untreated controls)” value [3] was “very good herbicidal activity”.

For `CC1(C)CC(S(=O)(=O)Cc2cccc3c2OC(F)(F)C(F)(F)O3)=NO1` [I-22.1], the “damage to crop plants (visual scoring)” value [1] was “did not cause any damage”, the “herbicidal activity against harmful plants (optical scoring of damage vs untreated controls)” value [2] was “very good herbicidal activity” and the “herbicidal activity against harmful plants (visual scoring vs untreated controls)” value [3] was “very good herbicidal activity”.

For `CCC1(C)CC(S(=O)(=O)Cc2cccc3c2OC(F)(F)C(F)(F)O3)=NO1` (stereo not shown) [I-22.2], the “damage to crop plants (visual scoring)” value [1] was “did not cause any damage”, the “herbicidal activity against harmful plants (optical scoring of damage vs untreated controls)” value [2] was “very good herbicidal activity” and the “herbicidal activity against harmful plants (visual scoring vs untreated controls)” value [3] was “very good herbicidal activity”.

For `CC1(C)CC(S(=O)(=O)Cc2cccc3c2OC(F)(F)O3)=NO1` [I-23.1], the “damage to crop plants (visual scoring)” value [1] was “did not cause any damage”, the “herbicidal activity against harmful plants (optical scoring of damage vs untreated controls)” value [2] was “very good herbicidal activity” and the “herbicidal activity against harmful plants (visual scoring vs untreated controls)” value [3] was “very good herbicidal activity”.

With `CCC1(C)CC(S(=O)(=O)Cc2cccc3c2OC(F)(F)O3)=NO1` (stereo not shown) [I-23.2] the “damage to crop plants (visual scoring)” value [1] was “did not cause any damage”, the “herbicidal activity against harmful plants (optical scoring of damage vs untreated controls)” value [2] was “very good herbicidal activity” and the “herbicidal activity against harmful plants (visual scoring vs untreated controls)” value [3] was “very good herbicidal activity”.

With `CC1(C)CC(S(=O)(=O)Cc2cccc3c2OCC3)=NO1` [I-24.1] the “damage to crop plants (visual scoring)” value [1] was “did not cause any damage”, the “herbicidal activity against harmful plants (optical scoring of damage vs untreated controls)” value [2] was “very good herbicidal activity” and the “herbicidal activity against harmful plants (visual scoring vs untreated controls)” value [3] was “very good herbicidal activity”.

With `CCC1(C)CC(S(=O)(=O)Cc2cccc3c2OCC3)=NO1` (stereo not shown) [I-24.2] the “damage to crop plants (visual scoring)” value [1] was “did not cause any damage”, the “herbicidal activity against harmful plants (optical scoring of damage vs untreated controls)” value [2] was “very good herbicidal activity” and the “herbicidal activity against harmful plants (visual scoring vs untreated controls)” value [3] was “very good herbicidal activity”.

For `CC1(C)CC(S(=O)(=O)Cc2cc3c(cc2Cl)OCO3)=NO1` [I-52.1, 3-{[(6-Chloro-1,3-benzodioxol-5-yl)methyl]sulfonyl}-5,5-dimethyl-4,5-dihydroisoxazole], the “damage to crop plants (visual scoring)” value [1] was “did not cause any damage”, the “herbicidal activity against harmful plants (optical scoring of damage vs untreated controls)” value [2] was “very good herbicidal activity” and the melting point was 170 °C. The “herbicidal activity against harmful plants (visual scoring vs untreated controls)” value [3] was “very good herbicidal activity”.

In the case of `CCC1(C)CC(S(=O)(=O)Cc2cc3c(cc2Cl)OCO3)=NO1` (stereo not shown) [I-52.2], the “damage to crop plants (visual scoring)” value [1] is reported as “did not cause any damage”, the “herbicidal activity against harmful plants (optical scoring of damage vs untreated controls)” value [2] is reported as “very good herbicidal activity” and the “herbicidal activity against harmful plants (visual scoring vs untreated controls)” value [3] is reported as “very good herbicidal activity”.

In the case of `Cn1nc(C(F)(F)F)c(CS(=O)(=O)C2=NOC(C)(C)C2)c1OC(F)F` [I-67.1], the “damage to crop plants (visual scoring)” value [1] is reported as “did not cause any damage”, the “herbicidal activity against harmful plants (optical scoring of damage vs untreated controls)” value [2] is reported as “very good herbicidal activity” and the “herbicidal activity against harmful plants (visual scoring vs untreated controls)” value [3] is reported as “very good herbicidal activity”.

For `CCC1(C)CC(S(=O)(=O)Cc2c(C(F)(F)F)nn(C)c2OC(F)F)=NO1` (stereo not shown) [I-67.2], the “damage to crop plants (visual scoring)” value [1] was “did not cause any damage”, the “herbicidal activity against harmful plants (optical scoring of damage vs untreated controls)” value [2] was “very good herbicidal activity” and the “herbicidal activity against harmful plants (visual scoring vs untreated controls)” value [3] was “very good herbicidal activity”.

With `Cn1nc(C(F)(F)F)c(CS(=O)(=O)C2=NOC(C)(C)C2)c1Cl` [I-77.1] the “damage to crop plants (visual scoring)” value [1] was “did not cause any damage”, the “herbicidal activity against harmful plants (optical scoring of damage vs untreated controls)” value [2] was “very good herbicidal activity” and the “herbicidal activity against harmful plants (visual scoring vs untreated controls)” value [3] was “very good herbicidal activity”.
